Measurements: US10413532B2, “Pharmaceutical compositions containing a PDE4 inhibitor and a PI3 delta or dual PI3 delta-gamma kinase inhibitor” (Rhizen Pharmaceuticals SA, priority 2012, dated 2019)

What was measured:
elastase = assay: fMLP induced elastase release from human neutrophils; type: cell-based; details: Neutrophil, compound alone
Method: Blood was procured from a local blood bank. Neutrophils were obtained using the dextran sedimentation method. Cells were plated at 100,000 cells per well in a 96-well plate, treated with fMLP (1 μM) and N-Succinyl-Ala-Ala-Ala-p-nitroanalide (1 μM) (Sigma) and incubated for 2 h. Intensity of digested substrate after incubation was determined by measuring the absorbance at 405 nm on a Fluostar Omega (BMG Labtech, NC, USA).

A549 cells = assay: Cell cycle analysis / CSE induced apoptosis in A549 cells; type: cell-based; details: compound alone, CSE 72 h
Method: A549 cells were plated in 6-well plates at a density of 100,000 cells per well and stimulated with CSE for 72 h. After incubation, cells were fixed in 70% ethanol and stored at 4° C. till analysis. Cells were stained with Guava Cell Cycle reagent according to the manufacturer's instructions. Cell cycle data were obtained using the Guava Personal Cell Analysis System (Millipore, USA).

[1] = tested on: macrophage and neutrophil infiltration; assay: Acute cigarette smoke induced cell infiltration in male Balb/c mice; type: in vivo; details: acute CS, mouse
Method: Animals were acclimatized for seven days prior to the start of the experiment. Animals were randomly distributed to various groups based on their body weights. On day 1, mice were administered by test compound or vehicle by the oral route and after 30 mins test compound administration animals were placed in a whole body exposure box. The mice were exposed to the mainstream smoke of 6 cigarettes from day 1 to day 4. Exposure to the smoke of each cigarette lasted for 10 min (cigarettes were completely burned in the first two minutes and followed by an air flow with animal ventilator) followed by exposure for the next 20 min with fresh room air. After every second cigarette an additional break of 20 min with exposure to fresh room air was conducted. Control animals were exposed to the room air chamber. From day 1 to day 4 animals were administered test compound by the oral route. On day 5, 24 hours after the last cigarette smoke (CS) exposure. animals were exsanguinated under anaesthesia, and the trachea was cannulated and the lungs were lavaged with 0.5 ml aliquots of heparinised PBS (1 unit/ml) four times through a tracheal cannula (total volume 2 ml). Bronchioalveolar (BAL) collected was stored at 2-8° C. until assayed for total cell and differential leukocyte count. BAL fluid was centrifuged (500×g for 10 min) and the resulting cell pellet was resuspended in 0.5 ml of heparinised saline. The total number of white blood cells was determined in BAL fluid and blood using a blood cell counter and adjusted to 1×10^6 cell/ml. Differential cell count was calculated manually. Forty microliters of the cell suspension was centrifuged using cytospin 3 to prepare a cell smear. The cell smear was stained with a blood staining solution for differentiation and microscopically observed by identifying each cell according to its morphological characteristics. The number of each cell type among 300 white blood cells in the cell smear were determined and expressed as a percentage, and the number of neutrophils and macrophages in each BAL fluid were calculated.
The procedure for acute cigarette smoke induced cell infiltration in male Balb/c mice described in Example 1 was performed with Compound A1 and roflumilast

[2] = 3 mg/kg oral, dose-response study
[3] = combination study, alone at 3.5 mg/kg

O=C(Nc1c(Cl)cncc1Cl)c1ccc(OC(F)F)c(OCC2CC2)c1 [Compound A, roflumilast, reference compound]
Emax (elastase; Homo sapiens, read-out: Emax of inhibition of elastase release): 43% | IC50 (elastase; human neutrophils, read-out: IC50 of inhibition of fMLP induced elastase release): 10.2 nM | inhibition of apoptosis (A549 cells): dose-dependent inhibition of apoptosis | percent inhibition of macrophage infiltration ([1]; 1 mg/kg oral): 22.2% | percent inhibition of neutrophil infiltration ([1]; 1 mg/kg oral): 70.85% | percent inhibition of macrophage infiltration [1, 2]: 51.00% | percent inhibition of neutrophil infiltration [1, 2]: 73.69% | percent inhibition of macrophage infiltration ([1]; 10 mg/kg oral): 69.11% | percent inhibition of neutrophil infiltration ([1]; 10 mg/kg oral): 83.01% | ED50 ([1]; Macrophage, oral, read-out: 50% inhibition (ED50) dose, macrophage infiltration): 3.5 mg/kg | inhibition of macrophage infiltration [1, 3]: 26.55% | inhibition of neutrophil infiltration [1, 3]: 44.42%
